Legend:
Assay type in all cases: in vivo, rat
[1] = system: carrageenan-induced hyperalgesia in rats; test: Carrageenan-induced hyperalgesia, mechanical nociceptive threshold after topical administration; conditions: male rats; carrageenan i.d.; 30 min later topical indomethacin 1 μg/μl with protamine 2 μg/μl, 30 μL; P<0.0001
Description: Male rats were treated with carrageenan (0.1% in 1 μg/5 μL) intradermally (i.d.), into the dorsum of the hind paw. Thirty minutes after the carrageenan administration, when hyperalgesia was established, animals received indomethacin combined with protamine or protamine alone, each in a volume of 30 μL, topically on the dorsum of one hind paw, at the site of the i.d. injection. Protamine was used at a concentration of 2 μg/μl and indomethacin was used at a concentration of 1 μg/μl. Mechanical nociceptive threshold was evaluated before carrageenan administration, and again 30 and 90 minutes after. […] Two-way repeated measures ANOVA, F(2.14)=40.46, P<0.0001. Bonferroni's multiple comparison post-hoc test. Data shown as mean±SEM; n=3 paws, per group.

[2] = system: PGE2 hyperalgesia in rats; test: PGE2-induced hyperalgesia, mechanical nociceptive threshold after topical administration; conditions: male rats; PGE2 100 ng/5 μL i.d.; 10 min later topical morphine 0.1 μg/μl with protamine 2 μg/μl, 30 μL; 30 and 60 min; P=0.0366
Description: Male rats received PGE2 (100 ng/5 μL, intradermally, i.d.), on the dorsum of the hind paw followed, 10 minutes later, by morphine combined with protamine or protamine alone (dissolved in distillated water-dH20) or morphine (using saline as a vehicle), each in a volume of 30 μL, was administered topically on the dorsum of one hind paw, at the site of the i.d. PGE2 injection. Protamine was used at a concentration of 2 μg/μl and morphine was used at a concentration of 0.1 μg/μl. Mechanical nociceptive threshold was evaluated before intradermal PGE2 and again 30 and 60 min after topical administration. […] Two-way repeated measures ANOVA, F(2.8)=4.25, *P=0.0366. Bonferroni's multiple comparison post-hoc test. Data shown as mean±SEM; n=3 paws, per group.

[3] = system: rats with chemotherapy-induced painful peripheral neuropathy (CIPN); test: Oxaliplatin-induced hyperalgesia (CIPN), mechanical nociceptive threshold after topical administration; conditions: oxaliplatin 2 mg/kg i.v. day 0, day 14 topical morphine 0.1 μg/μl with protamine 2 μg/μl, 30 μL on dorsum of hind paw, 30 and 60 min, P<0.0001
Description: Female rats received oxaliplatin (2 mg/kg, i.v.) on day 0. On day 14, at which time oxaliplatin-induced hyperalgesia was established, morphine combined with protamine or protamine alone (dissolved in distillated water-dH20) or morphine (using saline as a vehicle), each in a volume of 30 μL, was administered topically on the dorsum of one hind paw, at the site of nociceptive threshold testing. Protamine was used at a concentration of 2 μg/μl and morphine was used at a concentration of 0.1 μg/μl. Mechanical nociceptive threshold was evaluated before and 14 days after oxaliplatin administration, and again 30 and 60 minutes after topical drug administration. […] Two-way repeated measures ANOVA, F(6.18)=26.85, P<0.0001. Bonferroni's multiple comparison post-hoc test. n=3 per group.
Male rats received oxaliplatin (2 mg/kg, i.v.) on day 0. On day 14, at which time oxaliplatin-induced hyperalgesia was established, morphine combined with protamine or protamine alone, each in a volume of 30 μL, was administered topically on the dorsum of one hind paw, at the site of nociceptive threshold testing. Protamine was used at a concentration of 2 μg/μl and morphine was used at a concentration of 0.1 μg/μl. Mechanical nociceptive threshold was evaluated before and 14 days after oxaliplatin administration, and again 30 and 60 minutes after topical administration. […]

Row | SMILES | effect on carrageenan-induced hyperalgesia (mechanical nociceptive threshold) [1] | effect on PGE2-hyperalgesia (mechanical nociceptive threshold) [2] | effect on oxaliplatin-induced hyperalgesia (mechanical nociceptive threshold) ([3]; female rats) | effect on oxaliplatin-induced hyperalgesia (mechanical nociceptive threshold) ([3]; male rats)
1 | COc1ccc2c(c1)c(CC(=O)O)c(C)n2C(=O)c1ccc(Cl)cc1 [indomethacin] | attenuated carrageenan-induced hyperalgesia |  |  | 
2 | CN1CC[C@]23c4c5ccc(O)c4O[C@H]2[C@@H](O)C=C[C@H]3[C@H]1C5 [morphine] |  | significant attenuation of PGE2-hyperalgesia | attenuated oxaliplatin-induced hyperalgesia | attenuated oxaliplatin-induced hyperalgesia

From patent publication US20250017846A1, “TOPICAL ANALGESICS” (THE REGENTS OF THE UNIVERSITY OF CALIFORNIA, priority 2023, published 2025)
